Marks after values point to notes of the source that are not given here.
What was measured:
[1] = system: Human HaCat keratinocytes; experiment: Stimulation of keratinocyte proliferation (Hoescht DNA labeling); format: cell-based; conditions: 14 days; for Keratinocyte proliferation vs. control cell proliferation: n = 3
Protocol: The stimulation of cell growth can be readily measured by uptake of a fluorescent probe that intercalates between DNA bases (Hoescht method). There is a proportional relationship between the quantity of fluorescent DNA taken up and the number of cells. […] Cells and products were incubated during 14 days (37° C./5% CO2), the mediums being renewed at regular intervals. Then lawns were rinsed and broke before being labeled by means of the colouring agent inserting of the DNA HOESCHT 33258. The intensity of the labeling is proportional to the quantity of DNA of the cellular samples. A curve of calibration allows to correlate the intensity of the labeling to the number of cells.

[2] = system: Keratinocytes; experiment: Osmolar protection: cell vitality by MTT after hyperosmotic stress; format: cell-based; conditions: D-Sorbitol 200 mM, 0.06%
Protocol: Keratinocytes were cultured in an appropriate culture medium. Then, cells were exposed to hyperosmolar shock induced by D-Sorbitol 200 mM. […] The osmoprotector effect of the products is estimated by quantifying the cellular survival. MTT Method is used: the measure of the survival is made at T0, T24 h and T48 h after the beginning of the stress. An analysis of the variances is realized on the data. In case of identity of the variances, a test of Student for matched series is then realized on the averages.

[3] = system: keratin K10; experiment: Synthesis of keratin 10 by keratinocytes (fluorescence image analysis); format: cell-based, human; conditions: 14 days; for Synthesis of keratin 10, Fluorescence: HaCat, calcium-poor medium
Protocol: HaCat cells were cultured in the presence or absence of hydroxymethionine-Ca, 3-aminopropanesulfonic Acid alone, and both compounds in a calcium-poor culture medium for 14 days. The incubation time was rather long to enable the keratinocytes to pursue differentiation up to a late stage, thus enabling detection of the emergence of keratin K10. Quantification was conducted by fluorescence image analysis using 1 specific fluorescent probe (anti-keratin monoclonal antibody (Monosan) for keratin K10).

[4] = system: filaggrin; experiment: Filaggrin synthesis by keratinocytes (fluorescence-image analysis); format: cell-based, human; conditions: for Filaggrin synthesis, Fluorescence: Table 3, HaCat; for Filaggrin synthesis, Fluorescence / Filaggrin synthesis, Fluorescence, result per 106 cells: calcium-deficient medium; for Filaggrin synthesis, Fluorescence / Filaggrin synthesis, Fluorescence, result per 106 cells / increase in filaggrin synthesis on the control value: 14 days; for Filaggrin synthesis, Fluorescence, result per 106 cells: Table 2, HaCat
Protocol: HaCat cells were cultured to confluence, in a deficient medium in calcium, in the presence or absence of hydroxymethionine-Ca for 14 days. The culture period was rather long in order to enable the keratinocytes to pursue differentiation up to a rather late stage in order to detect the emergence of filaggrin. Quantification was conducted by fluorescence-image analysis after labeling filaggrin with a specific probe (polyclonal antibody, Santa-Cruz). […]

[5] = system: HaCat cells; experiment: Intracellular lipid synthesis (red oil staining of lipid vesicles); format: cell-based, human; conditions: 14 days; for Formation of lipid vesicles, Red-oil staining, result per 106 cells: HaCat
Protocol: The intracellular lipid vesicles characterize a late phase of differentiation. HaCat cells were cultured in the presence or absence of hydroxymethionine-Ca for 14 days. The incubation duration was rather long in order to enable the keratinocytes to pursue differentiation up to a relatively late stage.
Quantification was conducted by image analysis after red oil staining of the lipid vesicles.

[6] = system: Normal Human Keratinocyte (KHN) cells; experiment: Genes expression profile by DNA array on human keratinocyte culture; format: cell-based
Protocol: The genes expression profile modulated by hydroxymethionine was studied on human keratinocyte culture, cultured in the presence or absence of hydroxymethionine-Ca by DNA array studies allowing the detection of the main genes.
Normal Human Keratinocyte (KHN) cells were cultured to confluence before receiving 5×10E-3% hydroxymethionine or 5×10E-2% hydroxymethionine diluted in the culture medium. The negative controls are medium without hydroxymethionine. The KHN were incubated (37° C./5% CO2) at different times before that the culture was stopped to allow the extraction of the total RNA. Then, the quantitation of the mRNA of interest is allowed by the use of ADN biochip and quantified by means of software of interpretations of the fluorescent signals recorded by the sensors.

[7] = system: transglutaminase; experiment: Transglutaminase mRNA by quantitative RT-PCR; format: cell-based, human; conditions: 8 days; for Transglutaminase mRNA, Ct, result per 106 cells: HaCat
Protocol: HaCat cells were cultured in the presence or absence of hydroxymethionine-Ca for 8 days. The quantitative RT-PCR method used on the mRNA for transglutaminase is sensitive and yielded results as of 8 days of culture. Quantification consisted in analysis of the cycle threshold (Ct) parameter, which reflects the amplification power used to obtain a detectable signal.
Amplification is exponantial and of order 1.7 (recopying effectiveness for each cycle).

[8] = concentration 0.02% (mix: each)
[9] = concentration 0.05% (mix: each)

Q: With `NCCCS(=O)(=O)O` [3-aminopropanesulfonic acid] as the compound, how does the “effect on cell proliferation” value ([1]; 0.02% and 0.05%) read?
A: The value was “no stimulant effect”.

Q: What about the “Keratinocyte proliferation vs. control cell proliferation” value [1, 8] of the same compound?
A: Its value is 0%.

Q: What about the “Keratinocyte proliferation vs. control cell proliferation” value [1, 9] of the same compound?
A: The value was 0%.

Q: And the “Variation of the number of cells with regard to the control after a hyperosmotic stress (MTT)” value (“Variation of the number of cells” below) ([2]; T0)?
A: The value was “+8%”.

Q: What about the “Variation of the number of cells” value ([2]; T24 h) of the same compound?
A: The value was “+180%”.

Q: What about the “Variation of the number of cells” value ([2]; T48 h) of the same compound?
A: The value was “+247%”.

Q: And the “differentiating effect, keratin 10” value [3]?
A: Its value is “devoid of differentiating effect”.

Q: What about the “Synthesis of keratin 10, Fluorescence” value ([3]; 0.02%) of the same compound?
A: The value was 0.1 +/− 0.05 arbitrary unit.

Q: What about the “Synthesis of keratin 10, Fluorescence” value ([3]; 0.05%) of the same compound?
A: The value was less than 0.1 arbitrary unit.

Q: What about the “Synthesis of keratin 10, Fluorescence” value ([3]; 0.06%) of the same compound?
A: The value was 0.1 +/− 0.06 arbitrary unit.

Q: And the “Filaggrin synthesis, Change (%) vs control” value ([4]; Table 3, 14 days, 0.02%)?
A: Its value is 0.8 X.

Q: And the “Filaggrin synthesis, Change (%) vs control” value ([4]; Table 3, 14 days, 0.05%)?
A: The value was “X 1”.

Q: And the “Filaggrin synthesis, Change (%) vs control” value ([4]; Table 3, 14 days, 0.06%)?
A: The value was 0.8 X.

Q: And the “Filaggrin synthesis, Fluorescence” value ([4]; 0.02%)?
A: Its value is 1.2 +/− 0.6 arbitrary unit.

Q: What about the “Filaggrin synthesis, Fluorescence” value ([4]; 0.05%) of the same compound?
A: Its value is 1.5 +/− 0.7 arbitrary unit.

Q: What about the “Filaggrin synthesis, Fluorescence” value ([4]; 0.06%) of the same compound?
A: The value was 1.2 +/− 0.6 arbitrary unit.

Q: How did the “Keratinocyte proliferation vs. control cell proliferation” value [1, 8] turn out when `CSCCC(O)C(=O)O` (centres unmarked) [Hydroxymethionine-Ca (AHMC), 2-hydroxy-4-(thiomethyl)butanoic acid] was run?
A: The value was 223%.

Q: What about the “Keratinocyte proliferation vs. control cell proliferation” value [1, 9] of the same compound?
A: Its value is 170%.

Q: And the “Formation of lipid vesicles, Change (%) vs control” value (“Formation … Change (%) vs control” below) ([5]; 0.015%)?
A: The value was “+77%”.

Q: What about the “Formation … Change (%) vs control” value ([5]; 0.03%) of the same compound?
A: The value was “+58%”.

Q: And the “Formation … Change (%) vs control” value ([5]; 0.06%)?
A: The value was “+66%”.

Q: And the “Formation of lipid vesicles, Red-oil staining, result per 106 cells” value (shortened to “Formation of lipid vesicles … per 106 cells”) ([5]; 0.015%)?
A: Its value is 2.8 ± 0.3 arbitrary unit.

Q: And the “Formation of lipid vesicles … per 106 cells” value ([5]; 0.03%)?
A: The value was 2.5 ± 0.7 arbitrary unit.

Q: What about the “Formation of lipid vesicles … per 106 cells” value ([5]; 0.06%) of the same compound?
A: The value was 2.6 ± 0.6 arbitrary unit.

Q: And the “properties shown by the gene expression study” value [6]?
A: The value was “proliferative, pro-differentiation and proteinogenic properties but also DNA repairing properties”.

Q: And the “activation of the gene HK2 involved in the proliferation” value ([6]; 5×10E-3% or 5×10E-2%)?
A: Its value is “marked activation”.

Q: What about the “activation of the gene endothelin 1 involved in the cellular differentiation” value ([6]; 5×10E-3% or 5×10E-2%) of the same compound?
A: Its value is “marked activation”.

Q: And the “activity of the gene CACNA1C (subunit alpha 1 of the voltage-dependent calcium channel)” value ([6]; 5×10E-3% or 5×10E-2%)?
A: The value was “increased activity”.

Q: What about the “activity of the gene for RYR (ryanodine receptor)” value ([6]; 5×10E-3% or 5×10E-2%) of the same compound?
A: The value was “increased activity”.

Q: What about the “differentiation activities (ornithine decarboxylase, keratins, involucrin, intermediate filaments, claudin genes)” value ([6]; 5×10E-3% or 5×10E-2%) of the same compound?
A: The value was “strongly expressed”.

Q: What about the “gene TGD (thymidine DNA glycolase)” value ([6]; 5×10E-3% or 5×10E-2%) of the same compound?
A: The value was “activated”.

Q: What about the “Variation of the number of cells” value ([2]; T0) of the same compound?
A: Its value is “+54%”.

Q: And the “Variation of the number of cells” value ([2]; T24 h)?
A: Its value is “+108%”.

Q: What about the “Variation of the number of cells” value ([2]; T48 h) of the same compound?
A: Its value is “+112%”.

Q: What about the “Synthesis of keratin 10, Change vs control” value (“Synthesis … Change vs control” for short) ([3]; 0.02%) of the same compound?
A: The value was “X 45”.

Q: And the “Synthesis … Change vs control” value ([3]; 0.05%)?
A: Its value is “X 57”.

Q: And the “Synthesis … Change vs control” value ([3]; 0.06%)?
A: The value was “X 44”.

Q: And the “Synthesis of keratin 10, Fluorescence” value ([3]; 0.02%)?
A: Its value is 4.0 arbitrary unit.

Q: And the “Synthesis of keratin 10, Fluorescence” value ([3]; 0.05%)?
A: Its value is 5.1 +/− 1.3 arbitrary unit.

Q: What about the “Synthesis of keratin 10, Fluorescence” value ([3]; 0.06%) of the same compound?
A: The value was 3.9 +/− 1.7 arbitrary unit.

Q: What about the “Transglutaminase mRNA, Change (%) vs control” value ([7]; 0.015%) of the same compound?
A: Its value is “+322%*”.

Q: And the “Transglutaminase mRNA, Change (%) vs control” value ([7]; 0.03%)?
A: Its value is “+661%*”.

Q: And the “Transglutaminase mRNA, Change (%) vs control” value ([7]; 0.06%)?
A: The value was “+814%*”.

Q: And the “increase in mRNA coding for transglutaminase” value ([7]; dose-dependent)?
A: Its value is 8 fold.

Q: And the “Transglutaminase mRNA, Ct, result per 106 cells” value ([7]; 0.015%)?
A: Its value is 23.7 ± 0.3 amplification unit.

Q: What about the “Transglutaminase mRNA, Ct, result per 106 cells” value ([7]; 0.03%) of the same compound?
A: The value was 22.9 ± 0.1 amplification unit.

Q: What about the “Transglutaminase mRNA, Ct, result per 106 cells” value ([7]; 0.06%) of the same compound?
A: The value was 22.5 ± 0.3 amplification unit.

Q: And the “Filaggrin synthesis, Change (%) vs control” value ([4]; Table 2, 14 days, 0.015%)?
A: The value was “+379%”.

Q: What about the “Filaggrin synthesis, Change (%) vs control” value ([4]; Table 2, 14 days, 0.03%) of the same compound?
A: Its value is “+1072%”.

Q: What about the “Filaggrin synthesis, Change (%) vs control” value ([4]; Table 2, 14 days, 0.06%) of the same compound?
A: Its value is “+943%”.

Q: And the “Filaggrin synthesis, Fluorescence, result per 106 cells” value (“Filaggrin synthesis … per 106 cells” below) ([4]; 0.015%)?
A: The value was 1.9 ± 1.4 arbitrary unit.

Q: And the “Filaggrin synthesis … per 106 cells” value ([4]; 0.03%)?
A: The value was 4.6 ± 3.1 arbitrary unit.

Q: What about the “Filaggrin synthesis … per 106 cells” value ([4]; 0.06%) of the same compound?
A: The value was 4.1 ± 3.5 arbitrary unit.

Q: And the “Filaggrin synthesis, Change (%) vs control” value ([4]; Table 3, 14 days, 0.02%)?
A: The value was 3.3 X.

Q: And the “Filaggrin synthesis, Change (%) vs control” value ([4]; Table 3, 14 days, 0.05%)?
A: Its value is 3.4 X.

Q: What about the “Filaggrin synthesis, Change (%) vs control” value ([4]; Table 3, 14 days, 0.06%) of the same compound?
A: Its value is 2.7 X.

Q: And the “Filaggrin synthesis, Fluorescence” value ([4]; 0.02%)?
A: The value was 5.0 arbitrary unit.

Q: And the “Filaggrin synthesis, Fluorescence” value ([4]; 0.05%)?
A: Its value is 5.2 arbitrary unit.

Q: What about the “Filaggrin synthesis, Fluorescence” value ([4]; 0.06%) of the same compound?
A: The value was 4.2 arbitrary unit.

Q: What about the “increase in filaggrin synthesis on the control value” ([4]; concentration equivalent to 0.06%) of the same compound?
A: The value was no more than 10 fold.

Q: And the “increase in filaggrin synthesis on the control value” ([4]; lowest concentration)?
A: Its value is 3.7 fold.

Q: And the “production of filaggrine” value ([4]; used concentrations, 14 days after contact)?
A: Its value is “strongly stimulates”.

From patent publication US8377663B2, “Cosmetic composition comprising hydroxymethionine and 3-aminopropanesulfonic acid” (Sederma, S.A.S., priority 2007, dated 2013)
